Laboratory results taken from patent EP3502102A1, “STING INHIBITORS” (ECOLE POLYTECHNIQUE FEDERALE DE LAUSANNE (EPFL), priority 2017, dated 2019).
Where a chain is given by its changes, count along the chain named.

What was measured:
Solubility (comparison) = assay type: physicochemical
STING [1] = target: T1, STING (Mus musculus, UniProt Q3TBT3); assay: CMA-induced serum cytokines in mice; assay type: in vivo, C57BL/6 mice; set-up: tissue Jackson Laboratories 000664; host or cells: whole animal, C57BL/6J mice; conditions: pre-treated 1 h or 4 h before i.p. CMA; serum 4 h later
T1 sequence (Q3TBT3 1-378): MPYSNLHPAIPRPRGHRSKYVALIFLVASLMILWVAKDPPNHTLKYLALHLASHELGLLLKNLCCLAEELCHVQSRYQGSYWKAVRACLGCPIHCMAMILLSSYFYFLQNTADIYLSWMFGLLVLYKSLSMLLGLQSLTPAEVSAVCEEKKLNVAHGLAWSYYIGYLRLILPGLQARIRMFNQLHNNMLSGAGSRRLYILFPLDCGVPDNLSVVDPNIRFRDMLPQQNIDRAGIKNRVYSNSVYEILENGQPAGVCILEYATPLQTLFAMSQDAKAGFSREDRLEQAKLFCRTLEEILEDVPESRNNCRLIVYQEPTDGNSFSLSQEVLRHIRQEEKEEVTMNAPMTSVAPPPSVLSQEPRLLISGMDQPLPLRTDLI

STING [2] = target: T1, STING; assay: IFN-beta luciferase reporter in HEK293T cells transfected with STING, alone or with a cyclic dinucleotide synthase; assay type: cell-based; set-up: expressed in transfected cells; host or cells: HEK293T; conditions: wild-type HEK293T; STING expressed alone or in conjunction with cdG-Syn; 0.01-5µM; 16 h
Experimental: Reporter activity was measured 16 h after compound treatment. A nonlinear regression analysis was performed. […] Cytokine levels were normalized to DMSO-treated control cells. […] Nuclei were stained with DAPI. […] Depicted genes were measured by RT-qPCR. […] 16 h later Luciferase activity was measured. […] Flag-STING was immunoprecipitated and analysed by autoradiography.
HEK293T cells expressing murine STING with an N-terminal mCherry-tag ^28 were transfected using GeneJuice (Millipore) with a construct encoding for cyclic di-GMP synthase in conjunction with an IFN-• firefly luciferase reporter plasmid. 3 h after transfection cells were seeded in […] (Corning) coated with library compounds. For each compounds, a 40 nl volume was selected to obtain a concentration of 10 µM in the assay plates. The amount of DMSO in each well was normalised to 0.1%. After overnight treatment, cells were lysed in lysis buffer (25 mM Tris-phosphate (pH 7.8), 2 mM DTT, 2 mM 1,2-diaminocyclohexane-N,N,N',N'-tetraacetic acid, 10% glycerol, 1% Triton® X-100) for 20 min followed by the addition of firefly luciferase. Reporter activity was measured using a Tecan Infinite plate reader. The screen was performed using on ∼ 20.000 compounds from a chemically diverse compound collection available at the BSF core facility at EPFL.
In these cells, transient transfection of vectors encoding for cyclic di-GMP synthase (cdG-Syn) and an IFN-• reporter leads to robust induction of firefly luciferase activity. We used this system to perform a high-throughput chemical screen with a library of ∼ 20.000 small molecule compounds (Fig. 6b). To increase the selectivity of candidate compounds against the STING pathway, hits from the primary screen were counter-screened for their effect on RIG-I-driven activation of the IFN-• reporter. […] To further validate the two small molecules, we treated wild-type HEK293T cells with C-178 and C-176, in which STING was either expressed alone or in conjunction with cdG-Syn. […] We next conducted a limited structure-activity relationship (SAR) analysis. Since both C-178 and C-176 share a characteristic nitrofuran moiety, we prepared analogues of C-176/8 in which this structural motif was substituted (Fig. 1c).

[3] = mouse, in vivo, ip
Flag-STING [4] = target: T2, Flag-STING (Mus musculus, UniProt Q3TBT3, C91S); assay: Protein mass spectrometry of immunoprecipitated Flag-STING; assay type: binding; conditions: Flag-STING C91S; 1µM
T2 construct: expressed in transfected cells; host or cells: HEK293T (lentiviral transduction, induced overnight)
T2 sequence (Q3TBT3 1-378 C91S): T1 sequence (Q3TBT3 1-378) with C91S

Flag-STING [5] = target: T3, Flag-STING (Mus musculus, UniProt Q3TBT3); assay: as above; assay type: binding; conditions: Flag-STING; 1 µM, 30min
T3 construct: expressed in transfected cells; host or cells: HEK293T (lentiviral transduction, induced overnight)
T3 sequence (Q3TBT3 1-378): T1 sequence (Q3TBT3 1-378)

Structure (SMILES): O=C(Nc1ccc(I)cc1)c1ccc([N+](=O)[O-])o1 [C-176, N-(4-iodophenyl)-5-nitro-2-furamide]
- solubility relative to C-178 (Solubility (comparison)): improved solubility
- increase in serum concentration of IL-6 (STING [1]): completely abrogated
- increase in serum concentration of type I IFNs (STING [1]): completely abrogated
- half-maximal inhibitory concentration (IC50) values, IFN-• reporter activity (STING [2]): nanomolar
- serum half-life [3]: short
- covalent binding to STING-C91S (Flag-STING [4]): absence of covalent binding
- covalent modification of STING, mass shift (Flag-STING [5]): irreversibly modify STING
